Test system: control cell line without sweet receptor (HEKα15#17)
Experiment: Control cell line without sweet receptor in the same calcium cell based assay
Method: For measurement of human T1R2/T1R3 taste receptor dependent activity a control cell line without sweet receptor based on HEK 293 and a cell line expressing the sweet receptor hT1R2/hT1R3 based on HEK 293, respectively, are seeded into assay plates and labelled with the calcium sensitive fluorescence dye Fluo4-AM in a culture medium. The potential modulators, e.g. the test compound, are added to the control cell line and to the cell line expressing the sweet receptor hT1R2/hT1R3, respectively.
A stable cell line based on HEK293 was termed HEKα15#17 served as control for functional Ga-protein and a stable cell line HEKGα15#17R2R3b#8 C6 served as cell line expressing the sweet receptor hT1R2/hT1R3 based on HEKGα15#17.
The cells were cultured in DMEM/HG and 10% FCS Gold, 4 mM L-Glutamin, 1,3 mg/ml Geneticin (HEKGα15#17) or the same medium additionally containing 6 μg/ml Blasticidin (HEKGα15#17R2R3b#8 C6). The medium for the assay was DMEM/HG (high glucose, 4.5 g/l glucose, Life Technologies) and 10% FCS Gold, 4 mM L-Glutamin (HEKGα15#17) or DMEM/LG (low glucose, 1 g/l glucose; Life Technologies) and 10% FCS Gold (HEKGα15#17R2R3b#8C6), respectively.
In order to evaluate the sweet receptor modulating activity of the compound of formula (Ia), compound of formula (Ia) was added to the cultures in a concentration of 25 μM in a volume of 50 μl. Controls were KH-buffer (Krebs HEPES-buffer: 118 mM NaCl, 4.7 mM KCl, 1.2 mM MgSO4, 1.2 mM KH2PO4, 4.2 mM NaHCO3, 1.3 mM CaCl2, 10 mM Hepes, pH 7.4) either without or with sweetness enhancer.
Further controls for function of G-protein and receptor were isoproterenol (1 μM, Sigma Aldrich), ionomycin (1 μM, Calbiochem) and ATP (1 μM, Applichem).
For measurement of human T1R2/T1R3 taste receptor dependent activity, on day 1 of the test procedure the HEKα15#17 cells (control cell line without sweet receptor) and the HEKGα15#17R2R3b#8 C6 cells (cell line expressing the sweet receptor hT1R2/hT1R3), respectively, were transferred to low-glucose medium.
On day 2 the cells were seeded into assay plates at a density of 25,000 cells/well. Assay plates for fluorescence measurement (black clear bottom 96-cavity plates, Greiner Bio-One) were coated with poly-D-lysine. For direct comparison both cell lines (control cell line without sweet receptor and cell line expressing the sweet receptor hT1R2/hT1R3) were seeded into different cavities of the same assay plate. The plate was placed into the incubator for 48 hours at 37° C., 5% CO2, 100% relative humidity.
On day 4 the calcium assay was performed. For this assay, the cells were marked with Fluo4-AM in medium and KH-buffer. To each cavity 100 μl KH-buffer/250 μM sulfinpyrazone/4 μM Fluo4-AM were added gently to 100 μl medium (final concentration of Fluo4-AM=2 μM, stock solution of Fluo4-AM 1 mM in DMSO, excitation at 485 nm, emission at 520 nm, Fisher Scientific, 58239 Schwerte, Germany).
The plate was placed into the incubator for 1 hour. In the mean time the test substances (“ligands”) were prepared in a separate plate (5 times concentrated, 150 μl/cavity, and then automatically 50 μl/cavity were transferred into the screening cell plate by pipetting robot (FLEX-station, Molecular Devices, Sunnyvale, Calif.).
The culture medium was carefully removed and 200 μl KH-buffer/250 μM sulfinpyrazone per cavity was added slowly. Cells were left in the FLEX-station for 20 minutes for adaptation, followed by measurement at 37° C.

[1] = control compounds 1 μM, FIG. 1 second to fourth bars

| SMILES | Fluo4-AM fluorescence increase (activation of control cell line) [1] | also measured |
| --- | --- | --- |
| CC(C)NCC(O)c1ccc(O)c(O)c1 (centres unmarked) [isoproterenol] | activate both the control and the cell line expressing the sweet receptor hT1R2/hT1R3 | – |
| O=C(CO)[C@@H](O)[C@H](O)[C@H](O)CO [fructose] | – | Fluo4-AM fluorescence increase (activation of control cell line) (KH buffer/fructose (20 mM), FIG. 1 fifth bar): does neither activate the control cell line |
| C[C@H](CCC(=O)O)C[C@H](C)C[C@H](C)C(=O)/C=C(\O)[C@H](C)C[C@H](C)C/C=C/[C@@H](C)[C@@H](O)[C@@H](C)[C@@H](O)C[C@@H]1CC[C@@](C)([C@H]2CC[C@@](C)([C@@H](C)O)O2)O1 [ionomycin] | activate both the control and the cell line expressing the sweet receptor hT1R2/hT1R3 | – |
| O=S(=O)([O-])NC1CCCCC1.[Na+] [sodium cyclamate] | – | Fluo4-AM fluorescence increase (activation of control cell line) (sodium cyclamate 30 mM, control sweetener, FIG. 1 first bar): does not activate the control cell line |
| Nc1ncnc2c1ncn2[C@@H]1O[C@H](COP(=O)(O)OP(=O)(O)OP(=O)(O)O)[C@@H](O)[C@H]1O [ATP] | activate both the control and the cell line expressing the sweet receptor hT1R2/hT1R3 | – |
